Patent publication US10829427B2, “Naphthoquinones, pro-drugs, and methods of use thereof” (The Board of Regents of the University of Texas System, priority 2015, dated 2020)

Columns and labels:
Format in all cases: cell-based, human
Mia PaCa-2 cells = test: ATP assay (ATP depletion / cell viability) in Mia PaCa-2 cells; conditions: Relative activity compare with β-lapachone in ATP depletion of Mia PaCa-2 cells
Procedure: (§1) In vitro anti-cancer activity of the compound were performed using ATP Assay Kit (Abcam, ab83355) to initially screen, and further performed using 7-day DNA assay.
(§2) Cell culture: endogenous NQO1 overexpressing human MIA PaCa-2 pancreactic and A549 NSCLC cancer cells were obtained (Bey, et al., 2007; Li, et al., 2011). Cancer cells were grown in DMEM with 5% FBS and Mycoplasma free, and cultured at 37° C. in a 5% CO2 95% air humidified atmosphere.
ATP assay: Cells were seeded into each well of a 96-well plate (15000 cells/well) 18 hours ahead of experiment. After aspiration of the media from each well, 100 μl drug-contained media was added instead, and further incubated for 2 hours. After incubation, 100 μl ATP assay kit mixture was added into every well. Following further shaking for 10 minutes with light proof, the data were collected by reading luminescence integrate 1 second per well.

A549 cells = test: Cell viability in A549 cells (7-day DNA assay); conditions: relative to β-lapachone
Procedure: as §1, §2
DNA assay: Cells were seeded into each well of a 48-well plate (10000 cells/well) 24 hours ahead of experiment. After aspiration of the media from each well, 500 μl drug-contained media was added instead, and further incubated for 2 hours. Drugs were then removed, control growth medium was added, and cells were allowed to grow for an additional 7 days. Drugs were added to medium at a 1:1000 dilution immediately before administration to cells. DNA content (a measure of cell growth) was determined by fluoresence of the DNA dye Hoescht 33258 (Sigma), and read in a Cytofluor fluoresence plate reader. Data were expressed as relative growth with 6 repetitions.

MiaPaca 2 = test: Relative survival DNA assay, MiaPaca 2, with or without dicoumarol; conditions: MiaPaca 2, FIGS. 4A-4C
Procedure: (§3) Cell Lines and Culture. Endogenous NQO1 overexpressing human MiaPaca-2 (pancreatic carcinoma), A549 (None-small cell lung carcinoma), and MCF-7 (breast adenocarcinoma) were obtained (Bey, et al., 2007; Li, et al., 2011). All cell lines were grown in DMEM (Life Technologies) containing 5%-10% FBS (Fisher Scientific) in a 5% CO2 and 95% air incubator at 37° C.
(§4) Relative Survival Assays. Relative survival was assessed by DNA content and colony forming assays as described (Dong, et al., 2010). Briefly, for DNA content, cells were seeded at 1×10^4 per well in 48-well plates and allowed to attach overnight. Cells were then mock treated or treated with various doses of naphthaquinones (for 2 hours) in the presence or absence of dicoumarol as indicated. Drug-free medium was then added and cells were allowed to grow for 5 to 7 days until control cells reached ˜100% confluence. DNA content was then determined by Hoechst 33258 staining and fluorescence detection using a plate reader (Perkin-Elmer).

A549 = test: Relative survival DNA assay, A549, with or without dicoumarol; conditions: A549, FIGS. 4G-4I
Procedure: as §3, §4

MCF-7 = test: Relative survival DNA assay, MCF-7, with or without dicoumarol; conditions: MCF-7, FIGS. 4D-4F
Procedure: as §3, §4

| SMILES | IC50/IC50 (β-lapachone/Compoud) (Mia PaCa-2 cells) | IC50/IC50 (β-lapachone/Compoud) (A549 cells) | DNA amount in survival assay relative to β-lapachone (MiaPaca 2) | DNA amount in survival assay relative to β-lapachone (A549) | DNA amount in survival assay relative to β-lapachone (MCF-7) |
| --- | --- | --- | --- | --- | --- |
| CC(C)OC1=CC(=O)C(=O)c2cc(Cl)ccc21 [Compound 4, 7-chloro-4-isopropoxynaphthalene-1,2-dione] | 1~2 | 1~2 |  |  |  |
| COCCOCCOC1=CC(=O)C(=O)c2c(NC(C)=O)cccc21 [Compound 49, N-(5-(2-(2-methoxyethoxy)ethoxy)-7,8-dioxo-7,8-dihydronaphthalen-1-yl)acetamide] | 0.3~1 | 0.3~1 |  |  |  |
| CC(C)OC1=CC(=O)C(=O)c2c(O)cccc21 [Compound 38, 8-hydroxy-4-isopropoxynaphthalene-1,2-dione] | 1~2 | 1~2 |  |  |  |
| COCCOCCOCCOCCOC1=CC(=O)C(=O)c2c(NC(C)=O)cccc21 [Compound 48, N-(5-(2,5,8,11-tetraoxatridecan-13-yloxy)-7,8-dioxo-7,8-dihydronaphthalen-1-yl)acetamide] | >3 | >3 |  |  |  |
| CC(C)OC1=CC(=O)C(=O)c2c(NS(C)(=O)=O)cccc21 [Compound 21, N-(5-isopropoxy-7,8-dioxo-7,8-dihydronaphthalen-1-yl)methanesulfonamide] | >3 | >3 | decreased DNA amounts at lower concentrations relative to β-lapachone | decreased DNA amounts at lower concentrations relative to β-lapachone | decreased DNA amounts at lower concentrations relative to β-lapachone |
| CCCCCCOC1=CC(=O)C(=O)c2c(NC(C)=O)cccc21 [Compound 28, N-(5-(hexyloxy)-7,8-dioxo-7,8-dihydronaphthalen-1-yl)acetamide] | 1~2 | 1~2 |  |  |  |
| CC(C)OC1=CC(=O)C(=O)c2cc(Cl)c(Cl)cc21 [Compound 37, 6,7-dichloro-4-isopropoxynaphthalene-1,2-dione] | 1~2 | 0.3~1 |  |  |  |
